In the oligonucleotide strings, read from the 5' end, every base follows the letter of its sugar. An asterisk marks phosphorothioate; unmarked linkages are phosphodiester. Other units and linkages are bracketed, terminal groups are in braces. A string of capitals states the bases alone. e = 2'-O-(2-methoxyethyl) (MOE); [5mC] = 5-methylcytosine; d = 2'-deoxy (DNA)
Key:
[1] = tested on: Factor XI protein; assay: Cynomolgus monkeys: plasma Factor XI protein ELISA (Example 29); type: in vivo
Protocol: Groups, each consisting of two male and three female monkeys, were injected subcutaneously with ISIS 416838, ISIS 416850, ISIS 416858, ISIS 416864, or ISIS 417002 in escalating doses. Antisense oligonucleotide was administered to the monkeys at 5 mg/kg three times per a week for week 1; 5 mg/kg twice per week for weeks 2 and 3; 10 mg/kg three times per week for week 4; 10 mg/kg twice per week for weeks 5 and 6; 25 mg/kg three times per week for week 7; and 25 mg/kg twice per week for weeks 8, 9, 10, 11, and 12. One control group, consisting of two male and three female monkeys, was injected subcutaneously with PBS according to the same dosing regimen. An additional experimental group, consisting of two male and three female monkeys, was injected subcutaneously with ISIS 416850 in a chronic, lower dose regimen. Antisense oligonucleotide was administered to the monkeys at 5 mg/kg three times per week for week 1; 5 mg/kg twice per week for week 2 and 3; 10 mg/kg three times per week for week 4; and 10 mg/kg twice per week for weeks 5 to 12. Body weights were measured weekly. Blood samples were collected 14 days and 5 days before the start of treatment and subsequently once per week for Factor XI protein activity analysis in plasma and measurement of various hematologic factors. On day 85, the monkeys were euthanized by exsanguination while under deep anesthesia, and organs harvested for further analysis.
Plasma samples from all monkey groups taken on different days were analyzed by a sandwich-style ELISA assay (Affinity Biologicals Inc.) using an affinity-purified polyclonal anti-Factor XI antibody as the capture antibody and a peroxidase-conjugated polyclonal anti-Factor XI antibody as the detecting antibody. Monkey plasma was diluted 1:50 for the assay. Peroxidase activity was expressed by incubation with the substrate o-phenylenediamine. The color produced was quantified using a microplate reader at 490 nm and was considered to be proportional to the concentration of Factor XI in the samples.
The results are presented in Table 122, expressed as percentage reduction relative to that of the PBS control.

[2] = tested on: bradykinin; assay: Colitis Study E: bradykinin levels in colon; type: in vivo, Swiss Webb mice; settings: for Bradykinin levels in the colons: DSS-treated mice, day 7, 40 mpk
Protocol: Two groups 8 Swiss Webb mice were dosed with 40 mg/kg of ISIS 404071 injected subcutaneously twice a week for 3 weeks. Two control groups of 8 Swiss Webb mice were dosed with PBS subcutaneously twice a week for 3 weeks. Both the ASO treated groups and one of the control groups were then given 4% DSS in distilled water for 7 days ad libitum. One of the ASO and DSS treated groups was also given intravenous injections of 20 μg of recombinant human Factor XI protein (Haematologic Technologies Inc.) for 7 consecutive days, starting the day before DSS treatment. Mice were sacrificed at the end of the study on day 7 after DSS was administered.
The effect of antisense inhibition of Factor XI on kinin levels in the colon was evaluated (Phoenix Pharmaceuticals, Burlingame, Calif.) at the end of the study on day 7 after DSS was administered and the results are presented in Table 40.

[3] = tested on: murine Factor XI mRNA; assay: In vivo antisense inhibition of murine Factor XI: liver RNA analysis (Example 10); settings: BALB/c mice, relative to PBS control
Protocol: Several antisense oligonucleotides targeted to murine Factor XI mRNA (GENBANK Accession No. NM_028066.1, incorporated herein as SEQ ID NO: 6) showing statistically significant dose-dependent inhibition from the in vitro study were evaluated in vivo. BALB/c mice were treated with ISIS 404057 ([…], target start site 487, incorporated herein as SEQ ID NO: 10) and ISIS 404071 ([…], target start site 869, incorporated herein as SEQ ID NO: 11).
BALB/c mice were injected with 5 mg/kg, 10 mg/kg, 25 mg/kg, or 50 mg/kg of ISIS 404057 or ISIS 404071 twice a week for 3 weeks. A control group of mice was injected with phosphate buffered saline (PBS) twice a week for 3 weeks. Mice were sacrificed 5 days after receiving the last dose. Whole liver was harvested for RNA analysis and plasma was collected for protein analysis.
RNA was extracted from liver tissue for real-time PCR analysis of Factor XI. […] Results are presented as percent inhibition of Factor XI, relative to control.

## ISIS 416850: gapmer of Table 8 (antisense eT*eG*e[5mC]*eA*e[5mC]*dA*dG*dT*dT*dT*d[5mC]*dT*dG*dG*d[5mC]*eA*eG*eG*e[5mC]*e[5mC])
[1]; Example 29
  Factor XI protein levels (in words): time-dependent decrease in protein levels
[1]; chronic, lower dose regimen (*) 5 then 10 mg/kg s.c., day 8
  Inhibition of Factor XI protein relative to the PBS control: 6%
[1]; chronic, lower dose regimen (*) 5 then 10 mg/kg s.c., day 15
  Inhibition of Factor XI protein relative to the PBS control: 13%
[1]; chronic, lower dose regimen (*) 5 then 10 mg/kg s.c., day 22
  Inhibition of Factor XI protein relative to the PBS control: 12%
[1]; chronic, lower dose regimen (*) 5 then 10 mg/kg s.c., day 29
  Inhibition of Factor XI protein relative to the PBS control: 20%
[1]; chronic, lower dose regimen (*) 5 then 10 mg/kg s.c., day 36
  Inhibition of Factor XI protein relative to the PBS control: 22%
[1]; chronic, lower dose regimen (*) 5 then 10 mg/kg s.c., day 43
  Inhibition of Factor XI protein relative to the PBS control: 24%
[1]; chronic, lower dose regimen (*) 5 then 10 mg/kg s.c., day 50
  Inhibition of Factor XI protein relative to the PBS control: 30%
[1]; chronic, lower dose regimen (*) 5 then 10 mg/kg s.c., day 57
  Inhibition of Factor XI protein relative to the PBS control: 34%
[1]; chronic, lower dose regimen (*) 5 then 10 mg/kg s.c., day 64
  Inhibition of Factor XI protein relative to the PBS control: 37%
[1]; chronic, lower dose regimen (*) 5 then 10 mg/kg s.c., day 71
  Inhibition of Factor XI protein relative to the PBS control: 41%
[1]; chronic, lower dose regimen (*) 5 then 10 mg/kg s.c., day 78
  Inhibition of Factor XI protein relative to the PBS control: 42%
[1]; chronic, lower dose regimen (*) 5 then 10 mg/kg s.c., day 85
  Inhibition of Factor XI protein relative to the PBS control: 34%
[1]; chronic, lower dose regimen (*) 5 then 10 mg/kg s.c., day −5 (before treatment)
  Inhibition of Factor XI protein relative to the PBS control: 1%
[1]; chronic, lower dose regimen (*) 5 then 10 mg/kg s.c., day −14 (before treatment)
  Inhibition of Factor XI protein relative to the PBS control: 0%
[1]; escalating doses 5, 10, 25 mg/kg s.c., day 8
  Inhibition of Factor XI protein relative to the PBS control: 8%
[1]; escalating doses 5, 10, 25 mg/kg s.c., day 15
  Inhibition of Factor XI protein relative to the PBS control: 4%
[1]; escalating doses 5, 10, 25 mg/kg s.c., day 22
  Inhibition of Factor XI protein relative to the PBS control: 11%
[1]; escalating doses 5, 10, 25 mg/kg s.c., day 29
  Inhibition of Factor XI protein relative to the PBS control: 15%
[1]; escalating doses 5, 10, 25 mg/kg s.c., day 36
  Inhibition of Factor XI protein relative to the PBS control: 17%
[1]; escalating doses 5, 10, 25 mg/kg s.c., day 43
  Inhibition of Factor XI protein relative to the PBS control: 23%
[1]; escalating doses 5, 10, 25 mg/kg s.c., day 50
  Inhibition of Factor XI protein relative to the PBS control: 42%
[1]; escalating doses 5, 10, 25 mg/kg s.c., day 57
  Inhibition of Factor XI protein relative to the PBS control: 49%
[1]; escalating doses 5, 10, 25 mg/kg s.c., day 64
  Inhibition of Factor XI protein relative to the PBS control: 55%
[1]; escalating doses 5, 10, 25 mg/kg s.c., day 71
  Inhibition of Factor XI protein relative to the PBS control: 57%
[1]; escalating doses 5, 10, 25 mg/kg s.c., day 78
  Inhibition of Factor XI protein relative to the PBS control: 63%
[1]; escalating doses 5, 10, 25 mg/kg s.c., day 85
  Inhibition of Factor XI protein relative to the PBS control: 64%
[1]; escalating doses 5, 10, 25 mg/kg s.c., day −5 (before treatment)
  Inhibition of Factor XI protein relative to the PBS control: 0%
[1]; escalating doses 5, 10, 25 mg/kg s.c., day −14 (before treatment)
  Inhibition of Factor XI protein relative to the PBS control: 0%

## TGGTAATCCACTTTCAGAGG (eT*eG*eG*eT*eA*dA*dT*d[5mC]*d[5mC]*dA*d[5mC]*dT*dT*dT*d[5mC]*eA*eG*eA*eG*eG) [ISIS 404071, 5-10-5 MOE gapmer targeting murine Factor XI, target start site 869]
[2]; Colitis Study E, day 7
  bradykinin levels (in words): decreased
[2]; no human recombinant FXI
  Bradykinin levels in the colons: 0.1 ng/mg
[2]; plus human recombinant FXI 20 ug/mouse/day
  Bradykinin levels in the colons: 0.3 ng/mg
[3]; 5 mg/kg twice a week for 3 weeks
  % inhibition: 72%
[3]; 10 mg/kg twice a week for 3 weeks
  % inhibition: 82%
[3]; 25 mg/kg twice a week for 3 weeks
  % inhibition: 93%
[3]; 50 mg/kg twice a week for 3 weeks
  % inhibition: 96%

From patent publication US20120083522A1, “MODULATION OF INFLAMMATORY RESPONSES BY FACTOR XI” (Isis Pharmaceuitcals, inc., priority 2009, published 2012)
